Source: US7704975B2, “Modafinil compound and cyclodextrin mixtures” (Cephalon, Inc., priority 2000, dated 2010)
In brackets after ≈: the same amount, converted by molar mass. Read-outs that look alike come from different tables or passages of the source.

Tests used:
[1] = Aqueous solubility of modafinil, alone and in HPβCD solutions; type: physicochemical; conditions: thermodynamic from solid
Procedure: The following HPLC method may be used to measure the modafinil compound content in the compositions. Filter a solution saturated with a modafinil compound through a 1.2 μm syringe filter. Dilute 10 μL of the clear solution to 1 mL with 990 μL of dimethylsulfoxide (Fischer Certified ACS grade). Take 10 μL of the diluted solution for the HPLC analysis, with the following representative column conditions: • Flow rate: 1.2 mL/min. • Column: ODS, 4.6×20 mm, Column Temp: 30° C. • Mobil phase: 80%(65% Acetonitrile/35%1M phosphate buffer) 20% water • Analysis time: 5 minutes • Wavelength: 222 nanometers
Concentration can be calculated by comparison to area from a modafinil compound standard used at 0.4 mg/mL with appropriate dilution.

monkeys = conditions: single administration; cited from earlier work
mice = conditions: single administration; cited from earlier work

In the case of `NC(=O)C[S+]([O-])C(c1ccccc1)c1ccccc1` (stereo not drawn) [modafinil, 2-(benzhydryl-sulfinyl)acetamide], the solubility ([1]; aqueous with cosolvent or surfactant or cyclodextrin, 2% HPβCD solution, from 1:1 complex, read-out: amount solubilized) is reported as about 4.4 mg/mL (≈ 16.1 mM), the solubility ([1]; aqueous with cosolvent or surfactant or cyclodextrin, 20% HPβCD solution, from 1:1 complex, read-out: amount solubilized) is reported as about 39.5 mg/mL (≈ 144 mM) and the solubility ([1]; aqueous with cosolvent or surfactant or cyclodextrin, 40% HPβCD solution, from 1:1 complex, read-out: amount solubilized) is reported as about 78.4 mg/mL (≈ 287 mM). For the same molecule, the solubility ([1]; water without cyclodextrin, water, read-out: aqueous solubility) was 0.44 mg/mL (≈ 1.61 mM), the nocturnal activity (monkeys) was “increased nocturnal activity” and the locomotor activity (mice) was “increased locomotor activity”.
